Source: patent US4740233A, “Substituted 1,2,4-triazolo[1,5-a]-pyrimidine-2-sulfonamides and compositions and methods of controlling undesired vegetation and suppressing the nitrification of ammonium nitrogen in soil” (The Dow Chemical Company, priority 1986, dated 1988)

Tests used:
[1] = test system: cotton; experiment: Postemergent control of plant species; type: in vivo, Gossypium spp.; details: Gossypium hirsutum, post-emergence, 336 h, read-out: percent postemergent control
Protocol: (§1) In representative operations, each compound to be utilized in a series of tests is dissolved in acetone to one-half of the final volume (twice the final concentration) to be used and the acetone solution in each case is admixed with an equal volume of water containing 0.1 percent by weight of surface active material. The compositions, generally in the nature of an emulsion, were employed to spray separate respective plant species which had been grown to a 2-4 leaf stage in soil of good nutrient content in a greenhouse. The various beds were positioned side by side and exposed to substantially identical conditions of temperature and light. Each bed was maintained so as to prevent any interaction with test compounds in different seed beds. Other plants were left untreated to serve as controls. After treatment, the plants were maintained for about two weeks under greenhouse conditions conducive for good plant growth and watered as necessary. Control refers to the reduction in growth compared to the observed results of the same untreated species.

[2] = test system: rape; experiment: Postemergent control of plant species; type: in vivo, Brassica napus; details: Brassica napus, post-emergence, 336 h, read-out: percent postemergent control
Protocol: as §1

[3] = test system: soybean; experiment: Postemergent control of plant species; type: in vivo, Glycine max.; details: Glycine max, post-emergence, 336 h, read-out: percent postemergent control
Protocol: as §1

[4] = test system: sugar beet; experiment: Postemergent control of plant species; type: in vivo, Beta saccharifera; details: Beta vulgaris, post-emergence, 336 h, read-out: percent postemergent control
Protocol: as §1

[5] = test system: jimsonweed; experiment: Postemergent control of plant species; type: in vivo, Datura stramonium; details: Datura stramonium, post-emergence, 336 h, read-out: percent postemergent control
Protocol: as §1

[6] = test system: annual morning glory; experiment: Postemergent control of plant species; type: in vivo, Ipomoea spp.; details: Ipomoea, post-emergence, 336 h, read-out: percent postemergent control
Protocol: as §1

[7] = test system: pigweed; experiment: Postemergent control of plant species; type: in vivo, Amaranthus spp.; details: Amaranthus retroflexus, post-emergence, 336 h, read-out: percent postemergent control
Protocol: as §1

[8] = test system: velvetleaf; experiment: Postemergent control of plant species; type: in vivo, Abutilon theophrasti; details: Abutilon theophrasti, post-emergence, 336 h, read-out: percent postemergent control
Protocol: as §1

[9] = test system: corn; experiment: Postemergent control of plant species; type: in vivo, Zea mays; details: Zea mays, post-emergence, 336 h, read-out: percent postemergent control
Protocol: as §1

[10] = test system: rice; experiment: Postemergent control of plant species; type: in vivo, Oryza sativa; details: Oryza sativa, post-emergence, 336 h, read-out: percent postemergent control
Protocol: as §1

[11] = test system: sorghum; experiment: Postemergent control of plant species; type: in vivo, Sorghum vulgare; details: Sorghum, post-emergence, 336 h, read-out: percent postemergent control
Protocol: as §1

[12] = test system: wheat; experiment: Postemergent control of plant species; type: in vivo, Triticum aestivum; details: Triticum aestivum, post-emergence, 336 h, read-out: percent postemergent control
Protocol: as §1

[13] = test system: barnyardgrass; experiment: Postemergent control of plant species; type: in vivo, Echinochloa crusgalli; details: Echinochloa crus-galli, post-emergence, 336 h, read-out: percent postemergent control
Protocol: as §1

[14] = test system: crabgrass; experiment: Postemergent control of plant species; type: in vivo, Digitaria spp.; details: Digitaria sanguinalis, post-emergence, 336 h, read-out: percent postemergent control
Protocol: as §1

[15] = test system: yellow foxtail; experiment: Postemergent control of plant species; type: in vivo, Setaria lutescens; details: Setaria, post-emergence, 336 h, read-out: percent postemergent control
Protocol: as §1

[16] = test system: johnson grass; experiment: Postemergent control of plant species; type: in vivo, Sorghum halepense; details: Sorghum halepense, post-emergence, 336 h, read-out: percent postemergent control
Protocol: as §1

[17] = test system: wild oats; experiment: Postemergent control of plant species; type: in vivo, Avena fatua; details: Avena fatua, post-emergence, 336 h, read-out: percent postemergent control
Protocol: as §1

[18] = test system: yellow nutsedge; experiment: Postemergent control of plant species; type: in vivo, Cyperus esculentus; details: Cyperus, post-emergence, 336 h, read-out: percent postemergent control
Protocol: as §1

[19] = test system: nitrification of ammonium nitrogen; experiment: Suppression of nitrification of ammonium nitrogen in soil; details: 27° C.
How it was run: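 Value is % NH4-N remaining after a two-week, 27° C incubation of treated soil held at 1/3 bar tension moisture. Nitrate was measured with an ion-selective electrode after extraction with ammonium sulfate solution and 10 min shaking.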

[20] = test system: rice; experiment: Control of aquatic plant species (paddy water); type: in vivo, Oryza sativa; details: Oryza sativa, 216 h, nine days, read-out: Percent control
Protocol: (§2) In testing for such utility, the plant species to be tested were transplanted into 16 oz. containers into about 2 inches of soil when they were in the 1-2 inch stage and then flooded to a depth of about 1 inch. An acetone concentrate of the chemical to be tested was then injected into the paddy water, the volume injected being varied as desired to provide the desired concentration. Percent control was evaluated nine days after application.

[21] = test system: barnyardgrass; experiment: Control of aquatic plant species (paddy water); type: in vivo, Echinochloa crusgalli; details: Echinochloa crus-galli, 216 h, nine days, read-out: Percent control
Protocol: as §2

[22] = test system: sprangletop; experiment: Control of aquatic plant species (paddy water); type: in vivo, Leptochloa filiformis; details: Leptochloa filiformis, 216 h, nine days, read-out: Percent control
Protocol: as §2

[23] = test system: yellow nutsedge; experiment: Control of aquatic plant species (paddy water); type: in vivo, Cyperus esculentus; details: Cyperus, 216 h, nine days, read-out: Percent control
Protocol: as §2

Row | SMILES | plant injury at 500 ppm [1] [%] | plant injury at 500 ppm [2] [%] | plant injury at 500 ppm [3] [%] | plant injury at 500 ppm [4] [%] | pest or weed control at 500 ppm [5] [%] | pest or weed control at 500 ppm [6] [%] | pest or weed control at 500 ppm [7] [%] | pest or weed control at 500 ppm [8] [%] | plant injury at 500 ppm [9] [%] | plant injury at 500 ppm [10] [%] | plant injury at 500 ppm [11] [%] | plant injury at 500 ppm [12] [%] | pest or weed control at 500 ppm [13] [%] | pest or weed control at 500 ppm [14] [%] | pest or weed control at 500 ppm [15] [%] | pest or weed control at 500 ppm [16] [%] | pest or weed control at 500 ppm [17] [%] | pest or weed control at 500 ppm [18] [%] | % NH4-N Remaining After 2 Weeks Incubation ([19]; 0.06 ppm) [%] | % NH4-N Remaining After 2 Weeks Incubation ([19]; 0.25 ppm) [%] | further results
1 | C=CCN(c1c(Cl)cccc1Cl)S(=O)(=O)c1nc2nc(C)cc(C)n2n1 [Compound 263] | 50 | 100 | 0 | 100 | 80 | 80 | 90 | 40 | 0 | 85 | 70 | 0 | 40 | 90 | 95 | 100 | 0 | 0 | 0 | 0 | % NH4-N Remaining After 2 Weeks Incubation ([19]; 1 ppm): 87%; % NH4-N Remaining After 2 Weeks Incubation ([19]; 4 ppm): 11%
2 | O=S(=O)(Nc1c(Cl)cccc1Cl)c1nc2ncc(Cl)cn2n1 [Compound 114] |  |  |  |  |  |  |  |  |  |  |  |  |  |  |  |  |  |  |  |  | pest or weed control at 250 g/ha ([20]; 0.25 Kg/Ha): 0%; pest or weed control at 1000 g/ha ([20]; 1.0 Kg/Ha): 70%; pest or weed control at 250 g/ha ([21]; 0.25 Kg/Ha): 80%; pest or weed control at 1000 g/ha ([21]; 1.0 Kg/Ha): 95%; pest or weed control at 250 g/ha ([22]; 0.25 Kg/Ha): 0%; pest or weed control at 1000 g/ha ([22]; 1.0 Kg/Ha): 0%; pest or weed control at 250 g/ha ([23]; 0.25 Kg/Ha): 65%; pest or weed control at 1000 g/ha ([23]; 1.0 Kg/Ha): 90%
3 | Cc1cc(C)n2nc(S(=O)(=O)N(Cc3ccccc3)c3c(Cl)cccc3Cl)nc2n1 [Compound 265] | 0 | 60 | 40 | 80 | 0 | 60 | 70 | 0 | 0 | 0 | 0 | 0 | 0 | 0 | 0 | 0 | 0 | 0 | 0 | 0 | % NH4-N Remaining After 2 Weeks Incubation ([19]; 1 ppm): 0%; % NH4-N Remaining After 2 Weeks Incubation ([19]; 4 ppm): 17%
4 | COC(=O)c1cccc(C)c1N(C)S(=O)(=O)c1nc2nc(C)cc(C)n2n1 [Compound 261] | 60 | 95 | 90 | 90 | 95 | 90 | 65 | 95 | 0 | 0 | 30 | 0 | 20 | 10 | 95 | 100 | 0 | 0 | 0 | 0 | % NH4-N Remaining After 2 Weeks Incubation ([19]; 1 ppm): 21%; % NH4-N Remaining After 2 Weeks Incubation ([19]; 4 ppm): 18%
